Test results taken from patent US12139481B2, “Compositions comprising macrocycle derivatives incorporating bridged macrocycles and methods of producing and using same” (Southwestern Oklahoma State University, priority 2015, dated 2024).
pIC50: −log10 of the molar value. Values joined by “and” are separate entries in the source; they are usually repeats but may differ in a detail not shown here. Equal values may be shown once. Read-outs that look alike come from different tables or passages of the source.

Tested on: Cryptococcus neoformans ATCC 90113
Experiment: Antimicrobial microdilution assay against Cryptococcus neoformans (modified CLSI/NCCLS, optical density)
Assay type: cell-based
Settings: for X more potent than Amphotericin B: C. neoformans, ratio of molar IC50 to Amphotericin B
Description: Summary: Various macrocyclic derivatives constructed in accordance with the presently disclosed and/or claimed inventive concept(s) were screened in vitro against Cryptococcus neoformans ATCC 90113 using a microdilution assay. The minimum fungicidal concentration (MFC), the lowest test concentration that kills the organism, was determined in broth media.
Antimicrobial assay: Cryptococcus neoformans ATCC 90113 were obtained from the American Type Culture Collection (Manassas, VA.). The susceptibility testing was performed using a modified version of the CLSI (formerly NCCLS) methods (see below), and optical density was used to monitor growth. Samples were serially diluted in 20% DMSO/saline and transferred in duplicate to 96-well flat bottom microplates. Microbial inocula were prepared by correcting the OD630 of cell/spore suspensions in incubation broth RPMI at pH 6.0 to afford final desired target inocula. Amphotericin B (“AMB;” ICN Biomedicals, OH) was used as drug control. The organism concentration was read at 630 nm using the Biotek Powerwave XS plate reader (Bio-Tek instruments, VT) prior to and after incubation. Minimum fungicidal concentrations were determined by removing 5 μL from each clear well, transferring to agar, and incubating until growth was seen. The MFC/MBC is defined as the lowest test concentration that kids the organism (allows no growth on agar).
References for NCCLS methods referenced above: 1 NCCLS. Reference method for broth dilution antifungal susceptibility testing of yeasts, Vol. 22. Approved standard, 2nd ed. Wayne: National Committee for Clinical Laboratory Standards; 2002: 1-51. 2 NCCLS. Reference method for broth dilution antifungal susceptibility testing of conidium forming filamentous fungi, Vol. 18. Proposed standard M38-P. Wayne: National Committee for Clinical Laboratory Standards; 1998: 1-39. 3 NCCLS. Methods for dilution antimicrobial susceptibility tests for bacteria that grow aerobically, Vol. 20. NCCLS Document M7-A5. Wayne: National Committee for Clinical Laboratory Standards; 2000: 1-58.
The term “IC50” as used herein will be understood to refer to a test concentration in mol/L that affords 50% inhibition of the microbe relative to negative and positive controls. […] The abbreviation “MFC” as used herein will be understood to refer to a minimum fungicidal concentration, or the lowest test concentration in mol/L that kills the organism. All IC50s are calculated using the XLfit® fit curve fitting software (ID Business Solutions Ltd, Guildford, Surrey, UK).
General Experimental Procedures. All organisms were obtained from the American Type Culture Collection (Manassas, VA) and include the fungi Candida albicans ATCC 90028, C. glabrata ATCC 90030, C. krusei ATCC 6258, and Cryptococcus neoformans ATCC 90113, and the bacteria Staphylococcus aureus ATCC 29213 and methicillin-resistant S. aureus ATCC 33591 (MRS). All organisms were tested using modified versions of the CLSI (formerly NCCLS) methods. For all organisms, optical density was used to monitor growth (NCCLS, Reference Method for Broth Dilution Antifungal Susceptibility Testing of Yeasts; Approved Standard M27-A2. National Committee on Clinical Laboratory Standards, 2002 22 (15); and NCCLS, Methods for Dilution Antimicrobial Susceptibility Tests for Bacteria that Grow Aerobically; Approved Standard, Seventh Edition M7-A7. National Committee on Clinical Laboratory Standards, 2006. 26(2)).
Samples (dissolved in DMSO) were serially-diluted in 20% DMSO/saline and transferred (10 μL) in duplicate to 96 well flat bottom microplates.

[1] = in vitro, C. neoformans ATCC 90113
[2] = in vitro, C. neoformans ATCC 90113, read-out: C. neoformans IC50 (mol/L)

Molecule: C1CNCCN2CCCNCCN(C1)CC2.CC(=O)[O-].F[P-](F)(F)(F)(F)F.[Co+2] [ANC25, [Co(H2Bcyclam)(OAc)]PF6]
- X more potent than Amphotericin B: 0.03
- C. neoformans IC50 [1]: 4.360 µg/mL
- pIC50 [2]: 5.05

Molecule: [Cl][Fe-2]([Cl])([Cl])[Cl].[Cl][Fe-2]([Cl])([Cl])[Cl].[Fe+2].[Fe+2].c1cc(CN2CCCN3CCNCCCN(CC3)CC2)ccc1CN1CCCN2CCNCCCN(CC2)CC1 [TJH413B, [Fe2(H2-p-CB-cyclams)][FeCl4]2]
- X more potent than Amphotericin B: 0.03
- C. neoformans IC50 [1]: 7.380 µg/mL
- pIC50 [2]: 5.16

Molecule: [Co(Me1Pic1-CB-cyclen)](PF6)3 [KRW48]
- X more potent than Amphotericin B: 0.18
- C. neoformans IC50 [1]: 1.090 µg/mL
- pIC50 [2]: 5.89

Molecule: CC(=O)[O-].CN1CCN2CCN(CC1)CCN(Cc1cc(Cl)nc(Cl)c1)CC2.F[P-](F)(F)(F)(F)F.[Co+2] [OB118, [Co(Me1dcp1-CB-cyclen)(OAc)]PF6]
- X more potent than Amphotericin B: 0.03
- C. neoformans IC50 [1]: 6.050 µg/mL
- pIC50 [2]: 5.02

Molecule: CC(=O)[O-].CC(=O)[O-].CN1CCCN2CCN(CCCN(Cc3ccc(CN4CCCN5CCN(C)CCCN(CC5)CC4)cc3)CC2)CC1.F[P-](F)(F)(F)(F)F.F[P-](F)(F)(F)(F)F.[Co+2].[Co+2] [KS40, [Co2(p-CB-cyclams)(OAc)2](PF6)2]
- X more potent than Amphotericin B: 13 and 13.21
- C. neoformans IC50 [1]: 0.020 µg/mL
- pIC50 [2]: ≥ 7.74
- pIC50 (read-out: IC50 against C. neoformans): > 7.74

Molecule: CC(=O)[O-].CN1CCCN2CCN(CCCN(Cc3ccccc3)CC2)CC1.F[P-](F)(F)(F)(F)F.[Co+2] [TRH16, [Co(Bn1Me1Bcyclam)(OAc)]PF6]
- X more potent than Amphotericin B: 0.02
- C. neoformans IC50 [1]: 9.190 µg/mL
- pIC50 [2]: 4.81

Molecule: [Zn(Me1-SB-Cyclam)(C2H3O2)]PF6 [DLM32]
- X more potent than Amphotericin B: 0.01
- C. neoformans IC50 [1]: 17.280 µg/mL
- pIC50 [2]: 4.47

Molecule: C1CN2CCNCCN(CCN1)CC2.CC(=O)[O-].F[P-](F)(F)(F)(F)F.[Co+2] [ANC27A, [Co(H2Bcyclen)(OAc)]PF6]
- X more potent than Amphotericin B: 0.02
- C. neoformans IC50 [1]: 5.030 µg/mL
- pIC50 [2]: 4.96

Molecule: [Cl-].[Cl-].[Zn+2].c1ccc2[nH]c(CN3CCNCCN4CCN(CC4)CC3)nc2c1 [SJA222, [Zn(SB-BI-cyclen)(Cl)2]]
- X more potent than Amphotericin B: 0.03
- C. neoformans IC50 [1]: 2.610 µg/mL

Molecule: c1cc(CN2CCNCCCN3CCN(CC3)CC2)cc(CN2CCNCCCN3CCN(CC3)CC2)c1 [OB46, m-SB-Homocyclens]
- X more potent than Amphotericin B: 0.03
- C. neoformans IC50 [1]: 4.850 µg/mL
- pIC50 [2]: 5.04

Molecule: CC(=O)[O-].CC(=O)[O-].F[P-](F)(F)(F)(F)F.F[P-](F)(F)(F)(F)F.O.O.[Zn+2].[Zn+2].c1cc(CN2CCNCCN3CCN(CC3)CC2)cc(CN2CCNCCN3CCN(CC3)CC2)c1 [OB37, [Zn2(m-SB-Cyclens)(OAc)2][PF6]2•2H2O]
- X more potent than Amphotericin B: 0.32
- C. neoformans IC50 [1]: ≤ 0.800 µg/mL

Molecule: Clc1ccc2c(N3CCNCCN(c4ccnc5cc(Cl)ccc45)CCNCC3)ccnc2c1.[Cl-].[Cl-].[Mn+2] [K-PAA2-0004-P8-TJH410, {[Mn(4,10-bis(7-chloroquinoline)cyclen]Cl2}]
- X more potent than Amphotericin B: 0.04
- C. neoformans IC50 [1]: 4.123 µg/mL
- pIC50 [2]: 5.18

Molecule: CC(=O)[O-].CC(=O)[O-].O=[N+]([O-])c1ccc(Cn2c(CN3CCNCCN4CCN(CC4)CC3)nc3ccccc32)cc1.[Ni+2] [SJA232, [Ni(SB-BINO2-cyclen)(OAc)2]]
- X more potent than Amphotericin B: 0.02
- C. neoformans IC50 [1]: 5.070 µg/mL
- pIC50 [2]: 4.96

Molecule: CN1CCN2CCN(CC1)CCN(Cc1nc3ccccc3[nH]1)CC2 [SJA220, CB-BI-cyclen]
- X more potent than Amphotericin B: 0.02
- C. neoformans IC50 [1]: 5.160 µg/mL
- pIC50 [2]: 4.82

Molecule: CC(=O)[O-].CC(=O)[O-].CN1CCN2CCN(CC1)CCN(Cc1nc3ccccc3[nH]1)CC2.[Zn+2] [SJA225, [Zn(CB-BI-cyclen)(OAc)2]]
- X more potent than Amphotericin B: 0.01
- C. neoformans IC50 [1]: 5.690 µg/mL

Molecule: CN1CCN2CCN(C)CCN(CC1)CC2.F[P-](F)(F)(F)(F)F.[Cl-].[Cl-].[Co+3] [DT06#2, [Co(Bcyclen)Cl2]PF6]
- X more potent than Amphotericin B: 0.04
- C. neoformans IC50 [1]: 3.390 µg/mL
- pIC50 [2]: 5.17

Molecule: [Cu(dcp1-SB-cyclen)(OAc)]PF6 [OB105]
- X more potent than Amphotericin B: 0.08
- C. neoformans IC50 [1]: 2.190 µg/mL
- pIC50 [2]: 5.51

Molecule: c1ccc2[nH]c(CN3CCNCCN4CCN(CC4)CC3)nc2c1 [SJA219, SB-BI-cyclen]
- X more potent than Amphotericin B: 0.01
- C. neoformans IC50 [1]: 5.780 µg/mL
- pIC50 [2]: 4.75

Molecule: CN1CCCN2CCN(C)CCN(CC1)CC2.F[P-](F)(F)(F)(F)F.[Cl-].[Cl-].[Co+3] [DGJ031, [Co(B13N4)Cl2]PF6]
- X more potent than Amphotericin B: 0.02
- C. neoformans IC50 [1]: 4.980 µg/mL
- pIC50 [2]: 5.01

Molecule: C1CNCCN2CCCNCCN(C1)CCC2.CC(=O)[O-].F[P-](F)(F)(F)(F)F.F[P-](F)(F)(F)(F)F.F[P-](F)(F)(F)(F)F.[NH4+].[NH4+].[Ni+2] [SLK39B, [Ni(H2PBCyclam)(OAc)]PF6•2NH4PF6]
- X more potent than Amphotericin B: 0.03
- C. neoformans IC50 [1]: 5.890 µg/mL
- pIC50 [2]: 5.15

Molecule: [Cu2(p-CB-Homocyclens)(OAc)2][PF6]2 [ANC011]
- X more potent than Amphotericin B: 0.06
- C. neoformans IC50 [1]: 4.190 µg/mL
- pIC50 [2]: 5.41

Molecule: [Ni2(p-SB-cyclam-cyclen)(OAc)][PF6]3•H2O [CMB017A]
- X more potent than Amphotericin B: 0.06
- C. neoformans IC50 [1]: 4.940 µg/mL
- pIC50 [2]: 5.37

Molecule: CN1CCCN2CCN(CCCN(Cc3ccc(CN4CCCN5CCN(C)CCCN(CC5)CC4)cc3)CC2)CC1 [KS23, p-CB-cyclams]
- X more potent than Amphotericin B: 0.02
- C. neoformans IC50 [1]: 8.200 µg/mL
- pIC50 [2]: 4.85

Molecule: CC(=O)[O-].CC(=O)[O-].F[P-](F)(F)(F)(F)F.F[P-](F)(F)(F)(F)F.[Ni+2].[Ni+2].c1cc(CN2CCCN3CCNCCCN(CC3)CC2)ccc1CN1CCCN2CCNCCCN(CC2)CC1 [TJH415B, [Ni2(H2-p-CB-cyclams)(OAc)2][PF6]2]
- X more potent than Amphotericin B: 0.30
- C. neoformans IC50 [1]: 0.850 µg/mL
- pIC50 [2]: 6.10

Molecule: CC(=O)[O-].CC(=O)[O-].CN1CCN2CCN(CC1)CCN(Cc1ccc(CN3CCN4CCN(C)CCN(CC4)CC3)cc1)CC2.F[P-](F)(F)(F)(F)F.F[P-](F)(F)(F)(F)F.[Cu+2].[Cu+2] [JAV06, [Cu2(p-CB-Cyclens)(OAc)2][PF6]2]
- X more potent than Amphotericin B: 0.02
- C. neoformans IC50 [1]: 10.900 µg/mL
- pIC50 [2]: 4.99

Molecule: CN1CCN2CCN(CC1)CCN(Cc1ccccn1)CC2.[Cl-].[Cl-].[Mn+2] [KRW37, [Mn(pic1Me1-CB-Cyclen)Cl]Cl]
- X more potent than Amphotericin B: 0.03
- C. neoformans IC50 [1]: 3.076 µg/mL
- pIC50 [2]: 5.14

Molecule: O=[N+]([O-])c1ccc(Cn2c(CN3CCNCCN4CCN(CC4)CC3)nc3ccccc32)cc1 [SJA229, SB-BINO2-cyclen]
- X more potent than Amphotericin B: 0.06
- C. neoformans IC50 [1]: 1.890 µg/mL
- pIC50 [2]: 5.39

Molecule: [Zn2(m-SB-cyclam-cyclen)(OAc)2][PF6]2•3.3H2O [CMB035]
- X more potent than Amphotericin B: 0.33
- C. neoformans IC50 [1]: ≤ 0.800 µg/mL
- pIC50 [2]: 6.15

Molecule: [Co(Me1Py1-CB-Cyclam)Cl]PF6 [DGJ012]
- X more potent than Amphotericin B: 0.03
- C. neoformans IC50 [1]: 4.730 µg/mL
- pIC50 [2]: 5.08

Molecule: [Zn2(m-CB-Homocyclens)(OAc)0.5][PF6]3.5 [CDG037]
- X more potent than Amphotericin B: 0.18
- C. neoformans IC50 [1]: 1.620 µg/mL
- pIC50 [2]: 5.88
